Measurements taken from patent US20230355618A1, “RAF INHIBITOR FOR TREATING LOW GRADE GLIOMA” (Day One Biopharmaceuticals, Inc., priority 2020, published 2023).

Legend:
[1] = Phase 1 pediatric dose-escalation trial: pharmacokinetic studies (exposure, AUC0-∞); format: in vivo, human; settings: for AUC(0-inf): human, plasma, oral
Method: (§1) A 3+3 design is used. Based on the adult dose of 350 mg/m^2 by mouth every week (using a typical adult BSA of 1.7 m^2), the starting dose for the pediatric study was 80% of the adult RP2D, which was 280 mg/m^2 by mouth every week. Doses were escalated in an inter-patient stepwise fashion until dose-limiting toxicities (DLTs) were observed. The three different dose levels: 280 mg/m^2, 350 mg/m^2, and […].
(§2) Treatment began at 80% of the adult dose (i.e., 280 mg/m^2 by mouth once weekly based on the following calculation: • An adult dose of 600 mg once weekly and an average adult BSA (m^2) of 1.73 m^2=350 mg/m^2 • 80% of 350 mg/m^2=280 mg/m^2 starting dose
(§3) The dose escalation scheme is described in Table 1-A. The initial phase included 3 dose escalation levels to a maximum of 530 mg/m^2/dose weekly.
Pharmacokinetic studies were performed on all patients in the phase I component of the trial as venous access allowed. The initial phase 1 included 3 dose escalation levels to a maximum of 530 mg/m^2/dose weekly. PK studies were also conducted to evaluate phosphorylated ERK in the peripheral blood mononuclear cells.

[2] = test system: pediatric low grade glioma (pLGG); experiment: Phase 1 pediatric dose-escalation trial: tumor response by RANO criteria; format: in vivo, human; settings: for Best RANO Response (T1-Gad): pLGG
Method: as §1, §2, §3
FIG. 2 illustrates Phase 1 trial data of these nine individual pediatric LGG (pLGG) patient responses to Compound A over time. […] The median time to response was 10.5 weeks. Two patients achieved a complete response that was maintained throughout the dosing period of up to two years.
Two of eight patients with a RAF fusion had prolonged stable disease.

[3] = pLGG patients with a RAF fusion, Phase 1

Compound: C[C@@H](NC(=O)c1ncnc(N)c1Cl)c1ncc(C(=O)Nc2cc(C(F)(F)F)c(Cl)cn2)s1 [Compound A, (R)-2-(1-(6-amino-5-chloropyrimidine-4-carboxamido)ethyl)-N-(5-chloro-4-(trifluoromethyl)pyridin-2-yl)thiazole-5-carboxamide]
- Dose normalized AUC0-∞ ([1]; Subject-1 (PNOC014-01), predicted exposure at 530 mg/m^2 (predicted dose 456, 21 mg/kg), original dose cohort 280 mg/m^2): 1268 µg·h/L
- Dose normalized AUC0-∞ ([1]; Subject-2 (PNOC014-02), predicted exposure at 530 mg/m^2 (predicted dose 530, 19 mg/kg), original dose cohort 280 mg/m^2): 682 µg·h/L
- Dose normalized AUC0-∞ ([1]; Subject-3 (PNOC014-03), predicted exposure at 530 mg/m^2 (predicted dose 419, 23 mg/kg), original dose cohort 280 mg/m^2): 614 µg·h/L
- Dose normalized AUC0-∞ ([1]; Subject-4 (PNOC014-04), predicted exposure at 530 mg/m^2 (predicted dose 906, 13 mg/kg), original dose cohort 350 mg/m^2): 705 µg·h/L
- Dose normalized AUC0-∞ ([1]; Subject-5 (PNOC014-05), predicted exposure at 530 mg/m^2 (predicted dose 906, 14 mg/kg), original dose cohort 350 mg/m^2): 653 µg·h/L
- Dose normalized AUC0-∞ ([1]; Subject-6 (PNOC014-06), predicted exposure at 530 mg/m^2 (predicted dose 848, 16 mg/kg), original dose cohort 350 mg/m^2): 640 µg·h/L
- Dose normalized AUC0-∞ ([1]; Subject-7 (PNOC014-07), predicted exposure at 530 mg/m^2 (predicted dose 784, 15 mg/kg), original dose cohort 420 mg/m^2): 701 µg·h/L
- Dose normalized AUC0-∞ ([1]; Subject-9 (PNOC014-09), predicted exposure at 530 mg/m^2 (predicted dose 376, 24 mg/kg), original dose cohort 420 mg/m^2): 1122 µg·h/L
- AUC(0-inf) ([1]; 280 mg/m^2, Subject-1 (PNOC014-01), 21.9 kg, BSA 0.86 m^2, dose cohort 280 mg/m^2 by mouth once weekly, dose given 240 mg (11.0 mg/kg)): 0.67 µg·h/mL
- AUC(0-inf) ([1]; 280 mg/m^2, Subject-2 (PNOC014-02), 28.2 kg, BSA 1.0 m^2, dose cohort 280 mg/m^2 by mouth once weekly, dose given 280 mg (9.9 mg/kg)): 0.361 µg·h/mL
- AUC(0-inf) ([1]; 280 mg/m^2, Subject-3 (PNOC014-03), 18.1 kg, BSA 0.79 m^2, dose cohort 280 mg/m^2 by mouth once weekly, dose given 220 mg (12.2 mg/kg)): 0.324 µg·h/mL
- AUC(0-inf) ([1]; 350 mg/m^2, Subject-4 (PNOC014-04), 69.6 kg, BSA 1.71 m^2, dose cohort 350 mg/m^2 by mouth once weekly, dose given 600 mg (8.6 mg/kg)): 0.466 µg·h/mL
- AUC(0-inf) ([1]; 350 mg/m^2, Subject-5 (PNOC014-05), 66.5 kg, BSA 1.71 m^2, dose cohort 350 mg/m^2 by mouth once weekly, dose given 600 mg (9.0 mg/kg)): 0.431 µg·h/mL
- AUC(0-inf) ([1]; 350 mg/m^2, Subject-6 (PNOC014-06), 53.6 kg, BSA 1.6 m^2, dose cohort 350 mg/m^2 by mouth once weekly, dose given 560 mg (10.4 mg/kg)): 0.423 µg·h/mL
- AUC(0-inf) ([1]; 420 mg/m^2, Subject-7 (PNOC014-07), 53.7 kg, BSA 1.48 m^2, dose cohort 420 mg/m^2 by mouth once weekly, dose given 620 mg (11.5 mg/kg)): 0.556 µg·h/mL
- AUC(0-inf) ([1]; 420 mg/m^2, Subject-9 (PNOC014-09), 15.6 kg, BSA 0.71 m^2, dose cohort 420 mg/m^2 by mouth once weekly, dose given 300 mg (19.2 mg/kg)): 0.889 µg·h/mL
- patients who did not respond ([2]; NF1-associated pLGG, Phase 1): One
- Best RANO Response (T1-Gad) ([2]; Subject-1 (PNOC014-01), BSA 0.86 m^2, dose cohort 280 mg/m^2 once weekly): CR (CR = −100%)
- Best RANO Response (T1-Gad) ([2]; Subject-2 (PNOC014-02), BSA 1.0 m^2, dose cohort 280 mg/m^2 once weekly): PR (PR = −50% or more reduction from baseline)
- Best RANO Response (T1-Gad) ([2]; Subject-3 (PNOC014-03), BSA 0.79 m^2, dose cohort 280 mg/m^2 once weekly): PR (PR = −50% or more reduction from baseline)
- Best RANO Response (T1-Gad) ([2]; Subject-4 (PNOC014-04), BSA 1.71 m^2, dose cohort 350 mg/m^2 once weekly): PD (PD = ≥25% growth from nadir)
- Best RANO Response (T1-Gad) ([2]; Subject-5 (PNOC014-05), BSA 1.71 m^2, dose cohort 350 mg/m^2 once weekly): SD (SD = between −50% and +25%)
- Best RANO Response (T1-Gad) ([2]; Subject-6 (PNOC014-06), BSA 1.6 m^2, dose cohort 350 mg/m^2 once weekly): PD (PD = ≥25% growth from nadir)
- Best RANO Response (T1-Gad) ([2]; Subject-7 (PNOC014-07), BSA 1.48 m^2, dose cohort 420 mg/m^2 once weekly): SD (SD = between −50% and +25%)
- Best RANO Response (T1-Gad) ([2]; Subject-9 (PNOC014-09), BSA 0.71 m^2, dose cohort 420 mg/m^2 once weekly): PR (PR = −50% or more reduction from baseline)
- patients achieving a complete response maintained throughout the dosing period of up to two years ([2]; nine pLGG patients, Phase 1): Two
- patients achieving prolonged stable disease ([2]; nine pLGG patients, Phase 1): two
- patients who did not achieve a response ([2]; nine pLGG patients, Phase 1): two
- patients with a partial response ([2]; nine pLGG patients, Phase 1): Three
- patients with shrinkage in lesion size in the first radiologic images after initiation of dosing ([2]; nine pLGG patients, Phase 1): six of nine
- median time to response ([2]; nine pLGG patients, Phase 1, 280-420 mg/m^2 once weekly): 10.5 weeks
- patients who did not respond [2, 3]: One
- patients with complete or partial response per RANO criteria (≥50% decrease compared with baseline) [2, 3]: Five of the eight
- patients with prolonged stable disease [2, 3]: Two of eight
